How the values were obtained:
[1] = type: physicochemical; settings: for Dye Concentration in Acetone at RT: 72 h
Experimental: Examples 3-4 and Comparative Example A were prepared by placing 60-100 mg of each of the compounds of Examples 1-2 and 6-methoxy-14H-anthra(2,1,9-mna)thioxanthene-14-one (described by […] et al.) in a vial with 5.0 ml acetone. […] Each vial was hand shaken and the solution was filtered using a 0.45 micron polytetrafluoroethylene (PTFE) filter commercially available from VWR Scientific Products, West Chester, Pa. under the trade designation “Acrodisc 13CR PTFE”. The amount of fluorescent dye in the saturated acetone solution was determined by measuring the major dye absorption band at 535 nm using a UV-Vis Spectrophotometer commercially available from Shimadzu Scientific Instruments, Inc., Columbia, Md. under the trade designation “Shimadzu model UV-2401PC”. Dye concentrations were calculated by measuring the absorbance of the saturated acetone solution, and then diluting that solution until absorbance of the resulting solution was below 3. The dyes were assumed to have equal absorbance per mole. Using the dilution and an absorbance coefficient of 16,100 A/mol/L (coefficient obtained in acetone for the dye of Example 2) and assuming a Beer's Law relationship, the concentration of dye in each saturated solution was calculated and is set out in TABLE I.

Row | Compound | solubility in acetone relative to Comparative Example A [1] | Dye Concentration in Acetone at RT [1] [mg/mL] | melting point [°C]
1 | CC(C)CC(CC(C)C)Oc1cc2c3ccccc3c(=O)c3ccc4c5ccccc5sc1c4c32 [Example 2, 6-(1-Isobutyl-3-methylbutoxy)-14H-anthra[2,1,9-mna]thioxanthene-14-one] | improved solubility | 2.98 | 
2 | COc1cc2c3ccccc3c(=O)c3ccc4c5ccccc5sc1c4c32 [A, 6-methoxy-14H-anthra(2,1,9-mna)thioxanthene-14-one, reference compound] |  | 0.06 | 
3 | CCCCC(CC)COc1cc2c3ccccc3c(=O)c3ccc4c5ccccc5sc1c4c32 (stereo not drawn) [Example 1, 6-[(2-Ethylhexyl)oxy]-14H-anthra[2,1,9-mna]thioxanthene-14-one] | improved solubility | 0.96 | 175 to 177
